Columns and labels:
[1] = Inhibition of PI3Kdelta in conA-stimulated primary human T cell proliferation incubated for 1 hr by CellTiter-glo luminescent assay
[2] = Inhibition of PI3Kdelta in anti-FceRI-stimulated human Basophil cells degranulation incubated for 30 mins

IC50 [1]: 21 nM
IC50 [2]: 8.2 nM
SMILES: C[C@H]1CC[C@@H](c2nc3cccc(Cl)c3c(=O)n2-c2cccc(F)c2)N1c1ncnc2[nH]cnc12
